From US20090029366A1 (priority 2007, published 2009)

Key:
human HCN1 = target: T1, human HCN1 (Homo sapiens, UniProt O60741); type: cell-based
T1 construct: expressed in transfected cells; host or cells: HEK-293H
T1 sequence (O60741 1-890): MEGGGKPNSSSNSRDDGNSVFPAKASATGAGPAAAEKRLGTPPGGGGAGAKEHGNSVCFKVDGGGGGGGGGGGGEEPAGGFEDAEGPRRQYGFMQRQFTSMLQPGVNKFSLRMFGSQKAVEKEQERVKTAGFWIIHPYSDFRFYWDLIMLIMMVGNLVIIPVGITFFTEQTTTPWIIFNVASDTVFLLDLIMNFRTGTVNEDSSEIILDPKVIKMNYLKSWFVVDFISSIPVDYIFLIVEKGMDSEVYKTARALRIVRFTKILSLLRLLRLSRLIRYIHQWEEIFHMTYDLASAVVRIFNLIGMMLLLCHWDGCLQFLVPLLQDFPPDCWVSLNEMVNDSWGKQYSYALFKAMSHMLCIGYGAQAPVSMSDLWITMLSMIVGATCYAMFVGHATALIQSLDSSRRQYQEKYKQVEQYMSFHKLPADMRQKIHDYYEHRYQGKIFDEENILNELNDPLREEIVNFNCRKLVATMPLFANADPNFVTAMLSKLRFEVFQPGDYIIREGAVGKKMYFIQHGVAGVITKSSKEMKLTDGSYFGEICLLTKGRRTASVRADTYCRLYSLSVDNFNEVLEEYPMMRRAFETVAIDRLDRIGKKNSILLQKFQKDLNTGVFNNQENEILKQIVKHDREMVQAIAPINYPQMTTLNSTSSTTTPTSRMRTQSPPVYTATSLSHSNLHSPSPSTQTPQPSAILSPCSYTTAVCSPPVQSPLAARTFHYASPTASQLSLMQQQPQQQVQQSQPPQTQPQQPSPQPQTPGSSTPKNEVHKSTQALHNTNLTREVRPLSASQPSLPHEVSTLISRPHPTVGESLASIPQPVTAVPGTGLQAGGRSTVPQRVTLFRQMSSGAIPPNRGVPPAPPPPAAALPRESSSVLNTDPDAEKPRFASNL

human HCN4 channel = target: T2, human HCN4 channel (Homo sapiens, UniProt Q9Y3Q4); test: MPSD FLIPR 384 hyperpolarization assay, HCN4 (CHO-K1 cells); type: cell-based; conditions: 50 μM ZD7288
T2 construct: expressed in transfected cells; host or cells: CHO-K1
T2 sequence (Q9Y3Q4 1-1203): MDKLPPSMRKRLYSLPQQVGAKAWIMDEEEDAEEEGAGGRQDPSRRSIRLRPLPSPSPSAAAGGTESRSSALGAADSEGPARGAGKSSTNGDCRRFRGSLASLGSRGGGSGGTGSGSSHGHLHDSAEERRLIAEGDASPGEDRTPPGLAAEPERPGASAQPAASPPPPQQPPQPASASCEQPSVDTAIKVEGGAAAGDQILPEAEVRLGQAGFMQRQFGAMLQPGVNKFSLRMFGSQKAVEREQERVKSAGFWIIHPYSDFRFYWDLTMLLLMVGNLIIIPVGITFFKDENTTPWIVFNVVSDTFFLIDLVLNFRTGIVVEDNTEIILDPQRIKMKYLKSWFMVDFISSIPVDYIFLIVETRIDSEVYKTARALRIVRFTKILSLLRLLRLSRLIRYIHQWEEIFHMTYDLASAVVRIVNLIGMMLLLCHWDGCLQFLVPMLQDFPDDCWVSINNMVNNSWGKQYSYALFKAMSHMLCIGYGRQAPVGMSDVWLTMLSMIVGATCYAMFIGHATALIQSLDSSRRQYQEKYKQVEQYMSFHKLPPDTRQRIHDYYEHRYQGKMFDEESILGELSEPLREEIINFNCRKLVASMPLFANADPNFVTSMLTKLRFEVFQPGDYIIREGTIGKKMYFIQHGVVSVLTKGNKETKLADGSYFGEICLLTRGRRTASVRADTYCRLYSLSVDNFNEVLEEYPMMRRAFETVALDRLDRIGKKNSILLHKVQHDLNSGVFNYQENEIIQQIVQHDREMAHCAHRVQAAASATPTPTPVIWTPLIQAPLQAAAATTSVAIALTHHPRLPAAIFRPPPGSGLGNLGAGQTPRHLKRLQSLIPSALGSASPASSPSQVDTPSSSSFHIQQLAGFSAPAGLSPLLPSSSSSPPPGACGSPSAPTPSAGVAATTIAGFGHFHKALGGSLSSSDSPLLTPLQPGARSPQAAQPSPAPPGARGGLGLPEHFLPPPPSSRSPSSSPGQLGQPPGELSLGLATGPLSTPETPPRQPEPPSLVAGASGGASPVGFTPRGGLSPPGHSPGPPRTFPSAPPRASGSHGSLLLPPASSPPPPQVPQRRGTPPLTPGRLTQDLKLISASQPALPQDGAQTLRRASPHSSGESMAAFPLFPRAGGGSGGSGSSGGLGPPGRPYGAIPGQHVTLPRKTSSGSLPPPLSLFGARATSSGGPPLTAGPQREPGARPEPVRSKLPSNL
Method: CHO-K1 cells stably expressing a human HCN4 channel were plated as described in Example 3 above. Using a FLIPR®^96 assay, control cells were incubated in 30 μl/well HBSS (Gibco catalog 14025-092 containing NaCl, 137.93; KCl, 5.33; KH2PO4, 0.44; NaHCO3, 4.17; Na2HPO4, 0.34; CaCl2, 1.26; MgCl2, 0.49; MgSO4, 0.41; D-Glucose 5.56). The HBSS was supplemented with MPSD (1 vial/0.5 L). The saline for test cells additionally included 30 μM of the channel inhibitor ZD7288 dissolved in <1.0% DMSO. After 15-30 minutes incubation, background fluorescence was recorded on FLIPR and the membrane hyperpolarization induced by the addition of 200 μl sodium/potassium diluent solution (140 Choline-Cl, 1.0 mM CaCl2, 1.0 mM CaCl2, 10 mM HEPES, 5.5 mM D-glucose, pH 7.3 with TRIS-OH), supplemented with MPSD (1 vial/0.5 L) was recorded on FLIPR.
The FLIPR®^384 well plate was prepared similarly to the FLIPR®^96 well plate except that the amounts of HBSS (optionally, HBSS was supplemented with about 25 to 50 mM of KCl to further enhance assay window) and the sodium/potassium diluent solution were adjusted to keep the dilution ratio of these solutions between about 1:10-1:30, respectively. Additionally, 50 μM ZD7288 was added to the saline containing test cells. […] In addition, less than about 0.02% false positives or false negatives were observed (covariance 11.03 and 12.05, data not shown).

`CCN(c1ccccc1)c1cc(=NC)n(C)c(C)n1.Cl` [ZD7288] was tested. Which “reversal of hyperpolarization induced by low sodium/potassium diluent” value (human HCN1) did it give?
The value was “reversed”.

What about the “blockade of hyperpolarization of HCN4 channels” value (human HCN4 channel) of the same compound?
The value was “effectively blocked hyperpolarization”.
